Data published in paper PMC7897990, “TriTOX: A novel Trichomonas vaginalis assay platform for high-throughput screening of compound libraries” (International Journal for Parasitology: Drugs and Drug …, 2021).
Where two headings read alike, the source gives them in different places.

Experiments:
[1] = test system: Trichomonas vaginalis G3 trophozoites
[2] = test system: nontumorigenic neonatal foreskin fibroblast (NFF) cell line
[3] = HTS single concentration, parasite screen 1 µg/mL, replicate 1
[4] = HTS single concentration, parasite screen 1 µg/mL, replicate 2
[5] = NFF_NS1 screen 5 µg/mL, single concentration
[6] = HTS, parasite screen at 1 µg/mL, replicate 1
[7] = HTS, parasite screen at 1 µg/mL, replicate 2
[8] = NFF fibroblast screen at 5 µg/mL, A = active, I = inactive
[9] = HTS, parasite screen at 1 µg/mL, replicate 1, raw absorbance
[10] = HTS, parasite screen at 1 µg/mL, replicate 2, raw absorbance
[11] = parasite screen at 1 µg/mL, replicate 1
[12] = parasite screen at 1 µg/mL, replicate 2
[13] = NFF_NS1 screen at 5 µg/mL, NFF cells
[14] = replicate 1, parasite screen at 1 µg/mL
[15] = replicate 2, parasite screen at 1 µg/mL
[16] = HTS replicate 1, parasite screen 1 µg/mL
[17] = HTS replicate 2, parasite screen 1 µg/mL
[18] = NFF fibroblasts, single concentration 5 µg/mL

## CC=CC(C)=CC(C)C(=O)CC(O)CC1CC(=O)NC(=O)C1 (stereo not drawn) [BIA-M1404]
[1]; [3]
  T.vaginalis_%inb_Rep1: 18.76%
[1]; [4]
  T.vaginalis_%inb_Rep2: 13.41%
[2]; [5]
  NFF_Activity: I (otherwise these were reported as inactive (I))

## C[C@@H]1CCC[C@@H](O)CCC/C=C/c2cc(O)cc(O)c2C(=O)O1 [Zearalenol, alpha-]
[1]; [6]
  T.vaginalis_%inb_Rep1: 11.90%
[1]; [7]
  T.vaginalis_%inb_Rep2: 12.68%
[2]; [8]
  NFF_Activity: I (otherwise these were reported as inactive (I))

## Dihydrocyclosporin A
[1]; [6]
  T.vaginalis_%inb_Rep1: 11.52%
[1]; [9]
  T.vaginalis_Absorbance_Rep1: 0.923
[1]; [7]
  T.vaginalis_%inb_Rep2: 13.52%
[1]; [10]
  T.vaginalis_Absorbance_Rep2: 0.807
[2]; NFF_NS1 screen at 5 µg/mL
  NFF_Activity: I (otherwise these were reported as inactive (I))

## CN(C)[C@@H]1C(=O)C(C(N)=O)=C(O)[C@@]2(O)C(=O)C3=C(O)c4c(O)cccc4C[C@H]3C[C@@H]12.Cl [BIA-S1534]
[1]; [11]
  T.vaginalis_%inb_Rep1: 5.02%
[1]; [12]
  T.vaginalis_%inb_Rep2: 3.66%
[2]; [13]
  NFF_Activity: I (otherwise these were reported as inactive (I))

## CC(C=CC1OC(=O)C=CC1C)=CC(C)CC=CC(C)=CC(C)C(=O)C(C)C(O)C(C)CC(C)=CC(=O)O (stereo not drawn) [BIA-L1045]
[1]; [14]
  T.vaginalis_%inb_Rep1: 3.96%
[1]; [15]
  T.vaginalis_%inb_Rep2: 1.86%
[2]; NFF cells, screen at 5 µg/mL
  NFF_Activity: A (active (A) compounds having >25% inhibitory activity)

## COc1c(OC)c(-c2c[nH]c3ccccc23)c(OC)c(OC)c1-c1c[nH]c2ccccc12 [BIA-A1630]
[1]; [3]
  T.vaginalis_%inb_Rep1: 13.41%
[1]; [4]
  T.vaginalis_%inb_Rep2: 14.03%
[2]; [5]
  NFF_Activity: I (otherwise these were reported as inactive (I))

## CO[C@@H]1[C@@H](O)[C@@H](O)[C@@H](Oc2ccc3c(O)c(NC(=O)c4ccc(O)c(CC=C(C)C)c4)c(=O)oc3c2C)OC1(C)C [Descarbamylnovobiocin]
[1]; [6]
  T.vaginalis_%inb_Rep1: 9.75%
[1]; [9]
  T.vaginalis_Absorbance_Rep1: 0.89
[1]; [7]
  T.vaginalis_%inb_Rep2: 9.69%
[1]; [10]
  T.vaginalis_Absorbance_Rep2: 0.754
[2]; NFF_NS1 screen at 5 µg/mL
  NFF_Activity: I (otherwise these were reported as inactive (I))

## CC[C@H]1OC(=O)[C@H](C)[C@@H](O[C@H]2C[C@@](C)(OC)[C@@H](O)[C@H](C)O2)[C@H](C)[C@@H](O[C@@H]2O[C@H](C)C[C@H](N(C)C)[C@H]2O)[C@](C)(O)C[C@@H](C)C(=NO)[C@H](C)[C@@H](O)[C@]1(C)O [Erythromycin A oxime]
[1]; [6]
  T.vaginalis_%inb_Rep1: 3.82%
[1]; [9]
  T.vaginalis_Absorbance_Rep1: 0.78
[1]; [7]
  T.vaginalis_%inb_Rep2: 4.19%
[1]; [10]
  T.vaginalis_Absorbance_Rep2: 0.678
[2]; NFF_NS1 screen at 5 µg/mL
  NFF_Activity: I (otherwise these were reported as inactive (I))

## CCC(=O)[C@@H](C)[C@@H](O)[C@H](C)C[C@@H](C)[C@H]1OC(=O)C[C@@]2(O)CC=C(C)[C@H](O2)/C(C)=C/CCC[C@@H](O[C@H]2C[C@@H](OC(N)=O)[C@H](O)[C@@H](C)O2)/C=C/[C@H](C)C[C@H]1C [Venturicidin A]
[1]; [6]
  T.vaginalis_%inb_Rep1: 9.49%
[1]; [7]
  T.vaginalis_%inb_Rep2: 12.92%
[2]; [8]
  NFF_Activity: I (otherwise these were reported as inactive (I))

## CO[C@H]1[C@H](O)[C@@H](O)[C@H](n2c3c(Cl)cccc3c3c4c(c5c6cccc(Cl)c6[nH]c5c32)C(=O)NC4=O)O[C@@H]1CO [BIA-R1075]
[1]; [11]
  T.vaginalis_%inb_Rep1: 10.49%
[1]; [12]
  T.vaginalis_%inb_Rep2: 13.95%
[2]; [13]
  NFF_Activity: I (otherwise these were reported as inactive (I))

## C=CCNC1=C2CC(C)CC(OC)C(O)C(C)C=C(C)C(OC(N)=O)C(OC)C=CC=C(C)C(=O)NC(=CC1=O)C2=O (stereo not drawn) [BIA-A1923]
[1]; [3]
  T.vaginalis_%inb_Rep1: 11.27%
[1]; [4]
  T.vaginalis_%inb_Rep2: 34.13%
[2]; [5]
  NFF_Activity: I (otherwise these were reported as inactive (I))

## CC[C@H](C)[C@H]1O[C@]2(C=C[C@@H]1C)C[C@@H]1C[C@@H](C/C=C(\C)[C@@H](O[C@H]3C[C@H](OC)[C@@H](O[C@H]4C[C@H](OC)[C@@H](O)[C@H](C)O4)[C@H](C)O3)[C@@H](C)/C=C/C=C3\CO[C@@H]4[C@H](O)C(C)=C[C@@H](C(=O)O1)[C@]34O)O2 [BIA-A1010]
[1]; [3]
  T.vaginalis_%inb_Rep1: 14.32%
[1]; [4]
  T.vaginalis_%inb_Rep2: 14.17%
[2]; [5]
  NFF_Activity: I (otherwise these were reported as inactive (I))

## CC(C)C[C@H](NC(=O)[C@@H](O)[C@H](N)Cc1ccccc1)C(=O)O [BIA-B1278]
[1]; [3]
  T.vaginalis_%inb_Rep1: 14.49%
[1]; [4]
  T.vaginalis_%inb_Rep2: 15.84%
[2]; [5]
  NFF_Activity: I (otherwise these were reported as inactive (I))

## COC(=O)c1cc(O)cc(OC)c1Oc1cc(C)cc(O)c1C(=O)O [BIA-A1008]
[1]; [3]
  T.vaginalis_%inb_Rep1: 16.05%
[1]; [4]
  T.vaginalis_%inb_Rep2: 13.59%
[2]; [5]
  NFF_Activity: I (otherwise these were reported as inactive (I))

## COc1oc(C2C/C(=C/C(C)=C/C(C)=C/C(C)=C/c3ccc([N+](=O)[O-])cc3)CO2)c(C)c(=O)c1C (stereo not drawn) [Neoaureothin]
[1]; [16]
  T.vaginalis_%inb_Rep1: 14.76%
[1]; [17]
  T.vaginalis_%inb_Rep2: 12.19%
[2]; [18]
  NFF_Activity: I (otherwise these were reported as inactive (I))

## CC(=O)OC[C@]12C[C@H](O)C(C)=C[C@H]1O[C@@H]1[C@H](O)[C@@H](OC(C)=O)[C@@]2(C)[C@]12CO2 [Neosolaniol]
[1]
  T.vaginalis_%inb_Rep1: 8.23%
  T.vaginalis_%inb_Rep2: 6.22%
[2]
  NFF_Activity: I (key: active (A) compounds having >25% inhibitory activity; otherwise these were reported as inactive (I))

## COc1ccc([C@@H]2CC(=O)c3c(O)cc(O[C@@H]4O[C@H](CO[C@@H]5O[C@@H](C)[C@H](O)[C@@H](O)[C@H]5O)[C@@H](O)[C@H](O)[C@H]4O)cc3O2)cc1O [BIA-H1766]
[1]; [14]
  T.vaginalis_%inb_Rep1: 15.42%
[1]; [15]
  T.vaginalis_%inb_Rep2: 4.23%
[2]; NFF cells, screen at 5 µg/mL
  NFF_Activity: I (otherwise these were reported as inactive (I))

## CC[C@H]1OC(=O)[C@H](C)[C@@H](O[C@H]2C[C@@](C)(OC)[C@@H](O)[C@H](C)O2)[C@H](C)[C@@H](O[C@@H]2O[C@H](C)C[C@H](N(C)C)[C@H]2O)[C@@]2(C)CC(C)=C(O2)[C@H](C)[C@@H](O)[C@]1(C)O [Erythromycin A enol ether]
[1]; [6]
  T.vaginalis_%inb_Rep1: 5.17%
[1]; [9]
  T.vaginalis_Absorbance_Rep1: 0.805
[1]; [7]
  T.vaginalis_%inb_Rep2: 18.87%
[1]; [10]
  T.vaginalis_Absorbance_Rep2: 0.881
[2]; NFF_NS1 screen at 5 µg/mL
  NFF_Activity: I (otherwise these were reported as inactive (I))

## CC[C@H]1OC(=O)[C@H](C)[C@@H](O[C@H]2C[C@@](C)(OC)[C@@H](O)[C@H](C)O2)[C@H](C)[C@@H](O[C@@H]2O[C@H](C)C[C@H](N(C)C)[C@H]2O)[C@](C)(O)C[C@@H](C)C(=O)[C@H](C)[C@@H](O)[C@]1(C)O [Erythromycin A]
[1]; [6]
  T.vaginalis_%inb_Rep1: 5.27%
[1]; [9]
  T.vaginalis_Absorbance_Rep1: 0.806
[1]; [7]
  T.vaginalis_%inb_Rep2: 3.78%
[1]; [10]
  T.vaginalis_Absorbance_Rep2: 0.694
[2]; NFF_NS1 screen at 5 µg/mL
  NFF_Activity: I (otherwise these were reported as inactive (I))

## CC1=C[C@H]2C(=O)O[C@H]3C[C@@H](C/C=C(\C)C[C@@H](C)/C=C/C=C4\CO[C@H]([C@@H]1O)[C@@]42O)O[C@]1(C3)C[C@H](O)[C@H](C)[C@@H](/C(C)=C/C(C)C)O1 [Nemadectin]
[1]; [16]
  T.vaginalis_%inb_Rep1: 11.56%
[1]; [17]
  T.vaginalis_%inb_Rep2: 13.53%
[2]; [18]
  NFF_Activity: I (otherwise these were reported as inactive (I))

## CC[C@H]1/C=C/C=C/C[C@@H](C)[C@H](O)[C@@](C)(O)C(=O)[C@@H](C)[C@H](O)[C@@H](C)C(=O)[C@@H](C)[C@H](O)[C@@H](C)/C=C/C(=O)O[C@@H]2[C@H](C)[C@H](CC1)O[C@@]1(O[C@@H](C[C@@H](C)O)[C@@H](C)CC1=O)[C@]2(C)O [Oligomycin E]
[1]; [16]
  T.vaginalis_%inb_Rep1: 14.66%
[1]; [17]
  T.vaginalis_%inb_Rep2: 15.07%
[2]
  NFF_Activity: I (key: active (A) compounds having >25% inhibitory activity; otherwise these were reported as inactive (I))

## CC(=O)NCCc1c[nH]c2ccccc12 [BIA-A1732]
[1]; [3]
  T.vaginalis_%inb_Rep1: 14.43%
[1]; [4]
  T.vaginalis_%inb_Rep2: 33.62%
[2]; [5]
  NFF_Activity: I (otherwise these were reported as inactive (I))

## CC[C@H]1C[C@@H]2CC[C@@H](O2)[C@@H](C)C(=O)O[C@H](CC)C[C@H]2CC[C@H](O2)[C@H](C)C(=O)O[C@@H](CC)C[C@@H]2CC[C@@H](O2)[C@@H](C)C(=O)O[C@H](CC)C[C@H]2CC[C@H](O2)[C@H](C)C(=O)O1 [BIA-T1287]
[1]; [11]
  T.vaginalis_%inb_Rep1: 8.97%
[1]; [12]
  T.vaginalis_%inb_Rep2: 15.05%
[2]; [13]
  NFF_Activity: I (otherwise these were reported as inactive (I))

## C[C@@H]1C[C@H]2O[C@@H]2/C=C\C=C\C(=O)Cc2c(Cl)c(O)cc(O)c2C(=O)O1 [BIA-R1148]
[1]; [11]
  T.vaginalis_%inb_Rep1: 12.83%
[1]; [12]
  T.vaginalis_%inb_Rep2: 10.33%
[2]; [13]
  NFF_Activity: A (active (A) compounds having >25% inhibitory activity)

## Cc1cc(O)cc(=O)o1 [BIA-H1736]
[1]; [14]
  T.vaginalis_%inb_Rep1: 11.05%
[1]; [15]
  T.vaginalis_%inb_Rep2: 13.86%
[2]; NFF cells, screen at 5 µg/mL
  NFF_Activity: I (otherwise these were reported as inactive (I))

## CO[C@H]1C[C@H](O[C@H]2[C@H](C)O[C@@H](O[C@@H]3/C(C)=C/C[C@@H]4C[C@@H](C[C@]5(C=C[C@H](C)[C@@H](C(C)C)O5)O4)OC(=O)[C@@H]4C=C(C)[C@@H](O)[C@H]5OC/C(=C\C=C\[C@@H]3C)[C@]54O)C[C@@H]2OC)O[C@@H](C)[C@H]1NC(C)=O [Eprinomectin B1b]
[1]
  T.vaginalis_%inb_Rep1: 14.00%
  T.vaginalis_%inb_Rep2: 14.75%
  T.vaginalis_Absorbance_Rep1: 0.969
  T.vaginalis_Absorbance_Rep2: 0.824
[2]
  NFF_Activity: I (key: active (A) compounds having >25% inhibitory activity; otherwise these were reported as inactive (I))

## CC(=O)OC[C@]12CCC(C)=C[C@H]1O[C@@H]1[C@H](O)[C@@H](O)[C@@]2(C)[C@]12CO2 [BIA-A1982]
[1]; [3]
  T.vaginalis_%inb_Rep1: 9.02%
[1]; [4]
  T.vaginalis_%inb_Rep2: 12.13%
[2]; [5]
  NFF_Activity: A (active (A) compounds having >25% inhibitory activity)

## CC[C@H](C)[C@H]1O[C@]2(CC[C@@H]1C)C[C@@H]1C[C@@H](C/C=C(\C)[C@@H](O[C@H]3C[C@H](OC)[C@@H](O[C@H]4C[C@H](OC)[C@@H](O)[C@H](C)O4)[C@H](C)O3)[C@@H](C)/C=C/C=C3\CO[C@@H]4[C@H](O)C(C)=C[C@@H](C(=O)O1)[C@]34O)O2 [BIA-I1119]
[1]; [14]
  T.vaginalis_%inb_Rep1: 13.79%
[1]; [15]
  T.vaginalis_%inb_Rep2: 12.96%
[2]; NFF cells, screen at 5 µg/mL
  NFF_Activity: I (otherwise these were reported as inactive (I))
